This is an account of results in PubChem BioAssay (NCI).

Where “and” joins values, the source holds several entries; their conditions need not be identical. Equal values may be shown once.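 1) Cells in 96-well plates. 2) Compound, 48 h, 5 concentrations. 3) Linear interpolation between surrounding doses. 4) Unreached endpoint = highest concentration. GI50 marks 50% less growth. TGI: concentration producing complete growth inhibition.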

Test systems include DU-145 prostate; T-47D breast; MDA-MB-231 breast; HS 578T breast; MDA-MB-435; MCF7 breast; NCI/ADR-RES ovarian.
Holding throughout (assay): inhibition of tumour cell growth, NCI panel, 48 h

For `CCCCCCCCCC/C=C/CC(=O)SCCNC(=O)CCNC(=O)[C@@H](O)C(C)(C)COP(=O)(O)OP(=O)(O)OCC1OC(n2cnc3c(N)ncnc32)C(O)C1OP(=O)(O)O` (stereo partly drawn), the TGI in the assay with DU-145 prostate, in the assay with T-47D breast, in the assay with MDA-MB-231 breast, in the assay on HS 578T breast, in the assay on MDA-MB-435 and in the assay with MCF7 breast was above 10 µM each time. Moreover, the TGI in the assay with NCI/ADR-RES ovarian is above 10 µM.

Turning to `Cn1cc(C2=C(c3ccc4ccccc4c3)C(=O)NC2=O)c2ccccc21`, the GI50 was above 25 µM in the assay with DU-145 prostate; above 25 µM with T-47D breast; above 25 µM with MDA-MB-231 breast; above 17.7 µM with HS 578T breast; 0.885 µM in the assay on MDA-MB-435; 2.19 µM in the assay with MCF7 breast. In addition, in the assay with NCI/ADR-RES ovarian, the GI50 was above 23.9 µM. The TGI is above 25 µM in the assay with DU-145 prostate; above 25 µM in the assay with T-47D breast; above 25 µM in the assay with MDA-MB-231 breast; above 25 µM in the assay on HS 578T breast; above 13.6 µM with MDA-MB-435; above 25 µM with MCF7 breast. This compound also returned a TGI in the assay with NCI/ADR-RES ovarian above 25 µM.

`COc1ncnc(C2CC2)c1-c1ncc2cnn(Cc3ccc(-c4nc(C(F)(F)F)cn4C(C)C)cc3)c2n1`: the GI50 in the assay with DU-145 prostate is 22.1 µM; with T-47D breast it was 10.6 µM; in the assay with MDA-MB-231 breast, 22.9 µM; in the assay with HS 578T breast, 17.8 µM; in the assay with MDA-MB-435, 19.8 µM; in the assay with MCF7 breast, 17.3 µM. Further, in the assay on NCI/ADR-RES ovarian, the GI50 was 15.6 µM. Besides, the TGI was above 100 µM with DU-145 prostate; 85.2 µM in the assay with T-47D breast; above 100 µM in the assay with MDA-MB-231 breast; above 100 µM with HS 578T breast; 51.6 µM in the assay on MDA-MB-435; 57.4 µM in the assay on MCF7 breast. Besides, the TGI in the assay on NCI/ADR-RES ovarian was 82.6 µM.

As for `CCN1CCN(c2ccc(Nc3cc(N(C)C(=O)Nc4c(Cl)c(OC)cc(OC)c4Cl)ncn3)cc2)CC1`, the GI50 is 2.33 µM with DU-145 prostate; 2.51 µM in the assay with T-47D breast; 1.99 µM in the assay on MDA-MB-231 breast; 1.34 µM in the assay on HS 578T breast; 1.86 µM with MDA-MB-435; 2.41 µM with MCF7 breast. Moreover, the GI50 in the assay with NCI/ADR-RES ovarian was 3.7 µM. Further, the TGI with DU-145 prostate worked out at 9.75 µM; in the assay with T-47D breast, 6.49 µM; in the assay on MDA-MB-231 breast, 4.15 µM; with HS 578T breast it was 9.2 µM; in the assay on MDA-MB-435 it was 3.71 µM; with MCF7 breast it was 11.8 µM. The compound also had a TGI with NCI/ADR-RES ovarian above 64.5 µM.

In the case of `C=C(C=O)C1CCC2(C(=O)O)CCC3(C)C(CCC4C5(C)CCC(O)C(C)(C)C5CCC43C)C12` (stereo not drawn), the GI50 in the assay with DU-145 prostate was 1.6 µM; with T-47D breast, 5.19 µM; in the assay on MDA-MB-231 breast, 4.92 µM; with HS 578T breast, 10.1 µM; in the assay on MDA-MB-435, 2.74 µM; with MCF7 breast, 2.76 µM. Besides, in the assay with NCI/ADR-RES ovarian, the GI50 was 1.79 µM. For the same compound, the TGI in the assay with DU-145 prostate was 3.55 µM; in the assay with T-47D breast, 34.1 µM; with MDA-MB-231 breast, 50.4 µM; in the assay with HS 578T breast it was above 100 µM; with MDA-MB-435, 24.3 µM; with MCF7 breast, 14.3 µM. In addition, the TGI with NCI/ADR-RES ovarian was determined as 5.57 µM.

Take `Oc1ccc(Cl)cc1Cc1cc(Cl)cc(Cl)c1O`: the GI50 in the assay on DU-145 prostate was 4.94 µM; with T-47D breast it was 2.47 µM; in the assay with MDA-MB-231 breast, 7.92 µM; with HS 578T breast, 2.61 µM; with MDA-MB-435 it was 4.35 µM; in the assay on MCF7 breast, 3.51 µM. In addition, the GI50 with NCI/ADR-RES ovarian is 3.29 µM. Also, the TGI was determined as 53.7 µM with DU-145 prostate; 8.68 µM in the assay on T-47D breast; 48.1 µM in the assay with MDA-MB-231 breast; 8.97 µM in the assay with HS 578T breast; 83.2 µM in the assay on MDA-MB-435; 20.3 µM in the assay with MCF7 breast. Also, the TGI with NCI/ADR-RES ovarian was found to be 10 µM.

As to `COCCOc1cc(F)c2c(Nc3ccc(NC(=O)Cn4cc(C(C)C)nn4)cc3)ncnc2c1`, the GI50 with DU-145 prostate is above 100 µM; in the assay on T-47D breast, 8.11 µM; in the assay with MDA-MB-231 breast, 41.6 µM; with HS 578T breast, 16.5 µM; in the assay with MDA-MB-435 it was above 100 µM; in the assay with MCF7 breast, above 100 µM. In addition, the GI50 in the assay on NCI/ADR-RES ovarian was above 100 µM. In addition, the TGI with DU-145 prostate, with T-47D breast, in the assay on MDA-MB-231 breast, in the assay with HS 578T breast, in the assay on MDA-MB-435 and with MCF7 breast was above 100 µM in each case. The TGI with NCI/ADR-RES ovarian is above 100 µM.

For `CC(C)c1ccc(Nc2ccc3c(OCCCN4CCN(C)CC4)cccc3n2)cc1`, the GI50 in the assay with DU-145 prostate is 13.9 µM; in the assay with T-47D breast it was 12.9 µM; in the assay on MDA-MB-231 breast it was 2.11 µM; with HS 578T breast, 16.9 µM; with MDA-MB-435, 6.62 µM; in the assay on MCF7 breast, 3.21 µM. In addition, the GI50 in the assay on NCI/ADR-RES ovarian was 15.9 µM. Moreover, the TGI came out at 26.9 µM in the assay on DU-145 prostate; 31.6 µM in the assay with T-47D breast; 6.92 µM in the assay on MDA-MB-231 breast; 40.3 µM in the assay with HS 578T breast; 21.4 µM in the assay with MDA-MB-435; 15 µM in the assay on MCF7 breast. In the assay on NCI/ADR-RES ovarian, the TGI amounted to 32.9 µM.

Turning to `CC[C@]12C=CCN3CC[C@@]4(c5ccc(OC)cc5N(C)[C@H]4[C@@](O)(C(=O)OC)[C@@H]1OC(=O)CCC[P+](c1ccccc1)(c1ccccc1)c1ccccc1)[C@@H]32`, the GI50 in the assay with DU-145 prostate is 1.09 µM and 0.768 µM; in the assay with T-47D breast, 0.29 µM and 0.224 µM; in the assay on MDA-MB-231 breast, 0.467 µM and 0.525 µM; in the assay with HS 578T breast, 1.21 µM and 1.15 µM; in the assay on MDA-MB-435, 0.239 µM and 0.348 µM; with MCF7 breast, 0.254 µM and 0.354 µM. Further, the GI50 with NCI/ADR-RES ovarian was > 50 µM and 68.9 µM. Also, the TGI was 6.47 µM and 11.8 µM in the assay with DU-145 prostate; 6.56 µM and 0.977 µM in the assay on T-47D breast; 1.85 µM and 2.25 µM in the assay with MDA-MB-231 breast; 6.71 µM and 5.07 µM with HS 578T breast; 0.879 µM and 1.23 µM in the assay with MDA-MB-435; 5.21 µM and 1.79 µM in the assay on MCF7 breast. Further, in the assay on NCI/ADR-RES ovarian, the TGI was above 100 µM.

Take `O=S(=O)(Nc1cc(F)cc(Cl)c1)c1ccc(-c2cnc(C3CC3)o2)cc1`: the GI50 with DU-145 prostate was 3.58 µM; with T-47D breast, 1.7 µM; in the assay with MDA-MB-231 breast, 4.14 µM; in the assay on HS 578T breast it was 1.02 µM; with MDA-MB-435, 0.274 µM; in the assay with MCF7 breast, 0.485 µM. Besides, the GI50 in the assay with NCI/ADR-RES ovarian is 1.08 µM. The TGI with DU-145 prostate was 23.2 µM; in the assay on T-47D breast it was 33.5 µM; with MDA-MB-231 breast, 19.3 µM; in the assay with HS 578T breast, 17.2 µM; with MDA-MB-435 it was 1.22 µM; with MCF7 breast it was 23 µM. The TGI with NCI/ADR-RES ovarian came out at 15.5 µM.

For the compound `O=Cc1cc2c(cc1-c1c(C=O)ccc3c1OCO3)OCO2`, the TGI in the assay with DU-145 prostate, with T-47D breast, in the assay on MDA-MB-231 breast, in the assay with HS 578T breast, with MDA-MB-435 and with MCF7 breast was above 10 µM each time. This compound had a TGI with NCI/ADR-RES ovarian above 10 µM.

Regarding `CC/C(=C(/c1ccc(OCCN(C)C)cc1)c1ccc(OC(=O)CCCCC(=O)c2c(C)[nH]c(/C=C3\N=C(c4ccc[nH]4)C=C3OC)c2C)cc1)c1ccccc1`, the GI50 is 7.73 µM in the assay with DU-145 prostate; 1.37 µM in the assay on T-47D breast; 1.99 µM in the assay on MDA-MB-231 breast; 4.98 µM with HS 578T breast; 7 µM with MDA-MB-435; 0.0544 µM in the assay on MCF7 breast. Moreover, the GI50 in the assay on NCI/ADR-RES ovarian was 12.6 µM. In addition, the TGI amounted to 21.1 µM in the assay on DU-145 prostate; 6.02 µM with T-47D breast; 11.4 µM with MDA-MB-231 breast; 47.6 µM with HS 578T breast; 46.1 µM in the assay with MDA-MB-435; 1.2 µM with MCF7 breast. Besides, in the assay with NCI/ADR-RES ovarian, the TGI is 46.8 µM.

As for `O=C(CCCn1ccnc1[N+](=O)[O-])NCCn1cncc1[N+](=O)[O-]`, the TGI in the assay with DU-145 prostate, in the assay on T-47D breast, in the assay on MDA-MB-231 breast, in the assay on HS 578T breast, in the assay with MDA-MB-435 and with MCF7 breast was above 100 µM throughout. Further, the TGI with NCI/ADR-RES ovarian is above 100 µM.

On to `CC1OC2CC(=O)OC2C2=C1C(=O)c1c(O)cccc1C2=O` (stereo not drawn), for which the GI50 with DU-145 prostate was 0.15 µM; in the assay on T-47D breast, 0.106 µM; in the assay on MDA-MB-231 breast, 0.0684 µM; in the assay with HS 578T breast, 0.261 µM; with MDA-MB-435, 0.0493 µM; in the assay on MCF7 breast, 0.0183 µM. For the same compound, in the assay on NCI/ADR-RES ovarian, the GI50 is 0.0892 µM. Also, the TGI stood at 0.284 µM with DU-145 prostate; 0.351 µM in the assay on T-47D breast; 0.334 µM in the assay on MDA-MB-231 breast; 0.214 µM with MDA-MB-435; 0.0581 µM with MCF7 breast; 0.646 µM in the assay with NCI/ADR-RES ovarian.

Turning to `CC(=O)OC1Oc2ccccc2-c2oc(=O)c(-c3cc(=O)oc4cc(O)ccc34)cc21` (stereo not drawn), the GI50 in the assay with DU-145 prostate was 19.4 µM; in the assay with T-47D breast, 12.1 µM; with MDA-MB-231 breast, 24.9 µM; in the assay with HS 578T breast it was 17.9 µM; in the assay with MDA-MB-435, 18.4 µM; with MCF7 breast, 29.9 µM. Besides, in the assay on NCI/ADR-RES ovarian, the GI50 is 18.1 µM. Further, the TGI with DU-145 prostate is 50.5 µM; with T-47D breast, 48.4 µM; with MDA-MB-231 breast it was 81.5 µM; in the assay on HS 578T breast, 52 µM; in the assay with MDA-MB-435, 54.4 µM; in the assay with MCF7 breast it was above 100 µM. In addition, the TGI with NCI/ADR-RES ovarian is 44.6 µM.
